Laboratory results: the METLIN SMRT retention time set (Domingo-Almenara et al. 2019)

test: gradient 5% acetonitrile 3 min, to 50% in 2 min, to 85% in 15 min, held 3 min, 100 µL/min; settings: column: Zorbax Extend-C18 2.1 x 50 mm; eluents: water / acetonitrile, 0.1% formic acid
How it was run: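 The system's dead and dwell volumes were 40 μL and 900 μL, with a Zorbax Extend-C18 column (2.1 × 50 mm, 1.8 μm) run at 100 μL/min in water and acetonitrile containing 0.1% formic acid each. Pure standards were analyzed in mixtures of ~100 molecules by HPLC–quadrupole time-of-flight mass spectrometry in positive and negative ionization mode. Retention time was assigned from computationally picked, manually inspected adduct peaks.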

Compared with Cc1ccccc1Cn1c(CN2CCC(C(=O)NC3CCCCCCC3)CC2)cc2ccccc21, CCc1cccc(NC(=O)C2CCN(C(=O)c3ncn4c3COC(c3ccccc3)C4)CC2)c1 (stereo unspecified) is lower in RP-LC retention time: 934 s for the first, 879 s for the second.

First: Clc1cccc(Nc2nnc(-c3ccccc3)c3ccccc23)c1
Second: COc1ccccc1-c1nc(COC(=O)C2=CN(Cc3ccccc3)S(=O)(=O)N=C2C)no1
The RP-LC retention time of the first is lower: 790 s for the first, 1070 s for the second.

First: CCN(CC)C(=O)c1ccc(-c2nc3cc(NS(=O)(=O)c4cccs4)ccc3n2C)cc1
Second: COc1ccc(CC(=O)Nc2ccc(-c3cn4ccc(C)nc4n3)cc2)cc1
The RP-LC retention time of the first is higher: 679 s for the first, 639 s for the second.

Going from COc1cccc(NC(=O)N2CCN(Cc3nc4cc(Cl)ccc4o3)CC2)c1 to CCOc1ccccc1NC(=O)CSc1cc(N2CCN(c3ccc(OC)cc3)CC2)ncn1, the RP-LC retention time rises from 731 s to 1090 s.

Compared with CC(C)CC(=O)N1CCC2(CC1)c1nccn1-c1ccccc1CN2C, CCC(=O)N1CCc2sc(C(=O)NCc3ccccn3)cc2C1 is lower in RP-LC retention time: 580 s for the first, 577 s for the second.

Going from Cc1cccc(N(C)C(=O)Cn2c(=O)n(-c3cccc(C)c3)c(=O)c3c2cc(C)n3C)c1 to COc1ccc(-n2c(=O)c3sccc3n(Cc3nc(-c4ccccc4C)no3)c2=O)cc1, the RP-LC retention time rises from 752 s to 1000 s.

First: Cc1ccc(C)c2c(=O)c3c([nH]c12)CCN(CC(=O)Nc1ccccc1)C3
Second: CCOc1ccc2c(n1)CCN(C(=O)Nc1ccc(C)c(C)c1)C2
The RP-LC retention time of the first is lower: 627 s for the first, 900 s for the second.

Going from O=C(OCc1nc2ccccc2s1)c1ccc([N+](=O)[O-])s1 to CC(C)c1ccc(C(=O)NCC(=O)Nc2nc3ccccc3[nH]2)cc1, the RP-LC retention time falls from 970 s to 688 s.

Compared with COc1ccc(-c2noc(-c3nc(Cc4ccccc4)no3)n2)cc1OC, O=C1CC(c2nc(-c3cccnc3)no2)CN1c1ccc2c(c1)OCO2 (stereo unspecified) is lower in RP-LC retention time: 1100 s for the first, 728 s for the second.

Compared with O=C(NCc1csc(C2CCN(C(=O)Cc3ccc(Cl)cc3)CC2)n1)C1CC1, CC(=O)N1c2ccc(S(=O)(=O)N3CCCCCC3)cc2CC1C(=O)NCc1ccc(Cl)cc1 (stereo unspecified) is higher in RP-LC retention time: 747 s for the first, 951 s for the second.

Going from CC(=O)Nc1ccc(OCCOc2ccc([N+](=O)[O-])cc2)cc1 to CN(C)c1ccc(CNC(=O)c2nnc(-c3ccc(S(=O)(=O)N4CCOCC4)cc3)o2)cc1, the RP-LC retention time falls from 862 s to 648 s.

Compared with Cc1noc(C)c1-c1ccc(S(=O)(=O)N2CCOCC2)cc1, CS(=O)(=O)N(C1CCOCC1)C1CN(C(=O)Cc2c[nH]c3ccccc23)C1 is lower in RP-LC retention time: 807 s for the first, 667 s for the second.

Going from O=C(CC1CCCCN1S(=O)(=O)c1ccccc1)NCCc1c[nH]c2ccccc12 (stereo unspecified) to Cc1ccc(C)c(NC(=O)N2CCC(N3CCN(Cc4ccccc4)C(=O)C3=O)CC2)c1, the RP-LC retention time falls from 794 s to 740 s.

Compared with COc1ccc(C(=O)N2C[C@@H]3C[C@H]2C[C@@H]3NC(=O)c2cccs2)cc1F, O=C(c1ccoc1)N1CCCC1c1nc(-c2ccc(F)cc2F)no1 (stereo unspecified) is higher in RP-LC retention time: 712 s for the first, 869 s for the second.

Going from CCn1nc(CNC(=O)c2ccc(Br)o2)c2ccccc21 to Cc1ccc(C)n1-c1nnc(N2CCC(C(=O)N3CCN(c4ccccn4)CC3)CC2)s1, the RP-LC retention time falls from 881 s to 634 s.

First: CC(C)CN(CC1CCCO1)C(=O)CN1CC2=C(C1=O)C(c1ccccc1Cl)NC(=O)N2C (stereo unspecified)
Second: CCOC(=O)c1c(S(=O)(=O)N2CCC(C(=O)NCC3CCCO3)CC2)c(C)n(C)c1C (stereo unspecified)
The RP-LC retention time of the first is higher: 999 s for the first, 674 s for the second.

Compared with O=C(Nc1cccc(-c2nnc3n2CCCC3)c1)C1CC1, CCCn1cc(C(=O)N2CCC(N3CCCCC3)CC2)c2cccnc21 is lower in RP-LC retention time: 601 s for the first, 567 s for the second.

Compared with Cc1sc2ncnc(N3CCCC(C)C3)c2c1C(=O)Nc1cccc(F)c1C (stereo unspecified), NS(=O)(=O)c1cccnc1Nc1cc(F)cc(F)c1 is lower in RP-LC retention time: 1300 s for the first, 858 s for the second.
